Series [1] relates to Candida albicans A9540. The series is described as follows: In vitro antifungal activity, serial agar dilution method (Table 1a). In kind it is cell-based. Particulars: A9540, YM agar (pH 7.0, Difco), 30°C for 2 days (yeast) or 4 days (filamentous fungi), read-out: MICs, Candida albicans A9540. The method, then:
(§1) The inoculum size was adjusted to 10⁶ cells/ml, and a volume of approximately 0.003 ml of fungal suspension was applied to the surface of the antibiotic containing agar plates with a multiinoculator. After incubation, the lowest concentration of antibiotic causing virtually complete inhibition of fungal growth was determined as the minimum inhibitory concentration (MIC).
In general terms: In agar dilution, organisms are placed on agar that contains the substance at set levels.

The test system of series [2] is Candida pseudotropicalis A25802. Described as above. In kind it is cell-based. As to conditions: Kluyveromyces marxianus, YM agar (pH 7.0, Difco), 30°C for 2 days (yeast) or 4 days (filamentous fungi), read-out: MICs, Candida pseudotropicalis A25802. As for the experimental part: as §1
The test system of series [3] is Microsporum canis WW10218. The series is described as above. Format: cell-based. Particulars: WW10218, YM agar (pH 7.0, Difco), 30°C for 2 days (yeast) or 4 days (filamentous fungi), read-out: MICs, Microsporum canis WW10218. The method, then: as §1
The test system of series [4] is Trichophyton rubrum A26761. The series is described as above. As to conditions: A26761, YM agar (pH 7.0, Difco), 30°C for 2 days (yeast) or 4 days (filamentous fungi), read-out: MICs, Trichophyton rubrum A26761. In kind it is cell-based. As for the experimental part:
as §1

Series [5] relates to Candida albicans A9540. The series is described as follows: Intravenous Candida albicans infection mouse model, Table 2 part A. Format: in vivo. Particulars: drug administered once just after infection, 20 days after fungal challenge, method of Litchfield and Wilcoxon, male ICR mice. The method, then: Several compounds were also evaluated in an intravenous Candida albicans […] infection mouse model. The test organism was suspended in saline approximately 10 times the median lethal dose of the fungus (10⁶ cells/mouse) were used to infect intravenously male ICR mice weighing 20 to 24 g. Groups of five mice at each dose level were given the test compounds intravenously or intramuscularly. The 50% protective dose (PD₅₀) was calculated from survival rates recorded 20 or 21 days after the fungal challenge. Control animals died between 7 to 15 days.

Series [6] can be described thus: Water solubility, protocol I (PBS, HPLC). In kind it is physicochemical. As to conditions: Method I: PBS without CaCl₂ and MgCl₂.6H₂O. As for the experimental part:
The supernatant (2 µL) was analyzed by HPLC using the conditions specified for each compound in the Experimental Section. […] When not soluble, an additional amount of PBS (x µL) was added, sonicated, and centrifuged. When visibly soluble, the solution (2 µL) was injected to HPLC and the peak area was used for the known concentration of the sample.

Converted amounts (≈) assume the structure as drawn. “And” between values parts separate entries of the source, which are not always exact repeats. Equal entries are not always repeated.

In general, solubility refers to the dissolved amount per volume that the medium holds. Read a high solubility as much dissolved substance. `CN[C@@H]1[C@H](O[C@@H]2OC[C@@H](O)[C@H](O)[C@H]2O)[C@@H](O)[C@H](O[C@H]2c3cc(C)c(C(=O)N[C@H](C)C(=O)O)c(O)c3-c3c(cc4c(c3O)C(=O)c3cc(OC)cc(O)c3C4=O)[C@@H]2O)O[C@@H]1C` [Pradimicin A, reference compound]: the MIC in the series on Candida albicans A9540 [1] was above 50 µg/mL; in series [2] it was 3.2 µg/mL (≈ 3.81 µM); in series [3] it was 1.6 µg/mL (≈ 1.9 µM); in series [4], 6.3 µg/mL (≈ 7.49 µM). For the same compound, in the series on Candida albicans A9540 [5], the PD₅₀ was 11 mg/kg and 7.9 mg/kg. Also, the solubility in series [6] turned out to be 17 µg/mL (≈ 20.2 µM).

Source of the values: patent EP0428132A1, “Pradimicin derivatives” (Bristol-Myers Squibb Company, priority 1989, dated 1991).
